Test results taken from article PMC9420947, “^131I-Caerin 1.1 and ^131I-Caerin 1.9 for the treatment of non-small-cell lung cancer” (Frontiers in Oncology, 2022).
Like-named read-outs stand apart in the source and are kept apart here. No end group written: not given here.

How the values were obtained:
[1] = test system: A549 cells; type: cell-based, human; settings: MTT; for survival rate of A549 cells: overnight, triplicate, mean ± SD
Procedure: The NSCLC cell line A549 was from the Stem Cell Bank of the Chinese Academy of Sciences. The medium of A549 cells contained 89% RPMI medium 1640 (GIBCO, USA), 10% heat-inactivated fetal bovine serum (Coring, USA), and 1% penicillin-streptomycin solution (GIBCO, USA). The cells were incubated in an incubator (Thermo, USA) at 37°C in 5% CO2.
A total of 500 mg of 3-(4,5-dimethylthiazol-2-yl)-2,5-diphenyl tetrazolium bromide (MTT) powder (Sigma-Aldrich, USA) was dissolved in 100 ml of PBS to a final concentration of 5 mg/ml (0.5% MTT). The solution was stored in the dark at -20°C. A549 cells in the exponential growth phase were seeded in 96-well plates (Coring, USA) at 5×10^3 cells (100 µl) per well and then incubated at 37°C in 5% CO2 for 24 hours. Different concentrations of P3, Caerin 1.1, and Caerin 1.9 were added to the 96-well plates to reach final concentrations of 1, 5, 10, 15, 20, 25, 30, and 40 μg/ml. The experiment was done in triplicate and included control wells. The cells were cultured overnight. Once the drug’s effect was visible under the microscope, 10 µl of MTT solution was added to each well, and the cells were cultured for another 4 hours. Next, the supernatant was carefully aspirated, 150 µl of dimethyl sulfoxide solution (Sigma-Aldrich, USA) was added to each well, and the 96-well plates were placed on a shaker at low speed for 10 minutes. The absorbance at 570 nm was measured in an enzyme-linked immunosorbent assay plate reader (Thermo Scientific, USA). GraphPad Prism v9.3.0 was used calculate the half-maximal inhibitory concentration (IC50) of each drug and the survival rate (%).

[2] = test system: A549 xenograft NSCLC tumors; experiment: A549 subcutaneous xenograft in nude mice, tumor growth; type: in vivo, BALB/c female nude mice; settings: intratumoral injection every other day, four injections, 8 μg peptide and/or 7.4 ×10^6 Bq, 3 days after the last injection, four mice per group
Text: (§1) Specific pathogen–free (SPF) 4-6-week-old (adult) BALB/c female nude mice were purchased from Guangdong Medical Laboratory Animal Center. The animals were housed at the Animal Resource Center (First Affiliated Hospital of Guangdong Pharmaceutical University) under SPF conditions. No animal was sick or died during the study. Nude mice were sacrificed by cervical dislocation in accordance with the Animal Management Measures of the Ministry of Health of the People’s Republic of China (Document no.55, 2001). All experiments were approved and were done in accordance with the guidelines of the Animal Experiment Ethics Committee of the First Affiliated Hospital of Guangdong Pharmaceutical University (Ethics approval number: FAHGPU20160316).
(§2) A total of 100 µl of A549 cells (1×10^6 cells) suspended in PBS were inoculated subcutaneously in the axillary area of nude mice to establish a subcutaneous xenograft model. Once the tumor was 3 to 4 mm long, the nude mice were used in the following experiment. A digital caliper (Mitutoyo, Japan, CD-15APX) was used to monitor tumor size every other day. Tumor volume was calculated according to the formula: volume = width^2 × length/2.
(§3) To reduce the thyroid uptake of ^131I, all nude mice were fed 0.1% potassium iodide (Shanghai Macklin Biochemical Co., Ltd., China) for 3 days to block the thyroid before the experiment. […]

[3] = test system: A549 cells; experiment: CCK-8 cell proliferation and cytotoxicity; type: cell-based, human; settings: CCK-8, 20,000 KBq/ml, 24 hours, triplicate, mean ± SD
Procedure: A549 cells were seeded in two 96-well plates at 5×10^3 cells (100 µl) per well and cultured for 24 hours at 5% CO2 and 37°C. The ^131I-Caerin 1.1, ^131I-Caerin 1.9, and Na-^131I solutions were added to a final concentration of 2500, 5000, 10,000, or 20,000 KBq/ml. In the corresponding plates for Caerin 1.1 and Caerin 1.9, the drug concentration was 3.29, 6.95, 14.29, or 30.72 µg/ml. The experiment was done in triplicate and included three control (drug-free) groups. The cells were cultured for another 24 hours. Next, 10 µl of CCK-8 solution (DOJINDO, Japan) was added to each well, and then the cells were cultured in the dark for 4-6 hours. The absorbance at 450 nm was measured in an enzyme-linked immunosorbent assay plate reader, and GraphPad Prism v9.3.0 was used to calculate the cell survival rate.

[4] = Body weight of A549 tumor-bearing nude mice; type: in vivo, BALB/c female nude mice; settings: intratumoral injection every other day, four injections, 8 μg peptide and/or 7.4 ×10^6 Bq, 3 days after the last injection, four mice per group
Text: as §1, §2, §3

[5] = test system: A549 cells; experiment: Cell elution (retention); type: cell-based, human; settings: 24 h incubation, wash, then 24 hours in serum-free medium, 1.85 ×10^5Bq per well, γ count, triplicate, mean ± SD
Procedure: A549 cells were seeded in four 24-well plates at 5×10^4 cells (500 µl) per well and cultured for 24 hours. The experiment was done in triplicate and included a positive-control well. The supernatant was discarded, 0.5 ml of serum-free medium was added to each well, and then ^131I-Caerin 1.1, ^131I-Caerin 1.9, or free ^131I was added (1.85 ×10^5Bq or 2 µl per well). After incubation for 24 hours, the supernatant was discarded, the cells were washed twice with PBS, 0.5 ml of serum-free medium was added to each well, and the cells were incubated for another 2, 4, 6, or 24 hours. For the positive control, the supernatant was collected in a tube. For the experimental groups, the supernatant was discarded, the cells were washed twice with PBS, and 200 µl of trypsin was added to each well. After digestion, the cells were washed three times with PBS and then collected in a tube to measure the radioactivity count. GraphPad Prism v9.3.0 was used to calculate the drug retention rate.

[6] = test system: A549 cells; experiment: Cell uptake; type: cell-based, human; settings: 24 hours, serum-free medium, 1.85 ×10^5Bq per well, γ count, triplicate, mean ± SD
Procedure: A549 cells were seeded in four 24-well plates (Coring, USA) at 5×10^4 cells (500 µl) per well. The experiment was done in triplicate and included a positive-control well. After the cells were cultured in an incubator for 24 hours, the supernatant was discarded, 0.5 ml of serum-free medium was added to each well, and ^131I-Caerin 1.1 or ^131I-Caerin 1.9 and Na-^131I solution (1.85 ×10^5Bq or 2 µl per well) were added. After the cells were incubated for 2, 4, 6, or 24 hours, the cells were removed from the incubator. For the positive control, the supernatant was collected in a tube. For the experimental groups, the supernatant was discarded, and the cells were washed twice with PBS. Next, 200 µl of trypsin (GIBCO, USA) was added to each well. After digestion, the cells were washed three times with PBS and then collected in a tube to measure their radioactivity count. GraphPad Prism v9.3.0 was used to calculate the drug binding rate.

Row | Compound | survival rate of A549 cells ([1]; 10 μg/ml) | survival rate of A549 cells ([1]; 15 μg/ml) | survival rate of A549 cells ([1]; 20 μg/ml) | survival rate of A549 cells ([1]; 25 μg/ml) | IC50 on A549 cells ([1]; 1-40 μg/ml, GraphPad Prism) | tumor volume at the time of sacrifice [2] | tumor weight after sacrifice [2] | survival rate of A549 cells [3] | body weight at the time of sacrifice [4] | binding rate after elution [5] | uptake rate by A549 cells [6]
1 | GLFGVLGSIAKHVLPHVVPVIAEKL-NH2 [Caerin 1.9] | 74.20% ± 3.57% | 72.65% ± 0.76% | 36.43% ± 4.85% | 20.43% ± 1.92% | 17.46 µg/mL |  |  |  |  |  | 
2 | [131I-].[Na+] [Na-^131I, reference compound] |  |  |  |  |  | 186.30 ± 19.69 mm^3 | 0.147 ± 0.009 g | 71.56% ± 9.83% | 17.99 ± 0.50 g | 4.97% ± 0.59% | 0.67 ± 0.08%
